We go through three compounds from patent US5892018A, “DNA sequences encoding a brain sodium channel protein” (priority 1997, dated 1999).

This experiment addresses T1, BNC1 (Homo sapiens, UniProt Q16515).
T1 construct: a 1539-bp open reading frame extending to the 3' stop codon; expressed in transfected cells; host or cells: Xenopus laevis oocytes, nuclear injection of BNC1 cDNA in pMT3
T1 sequence (Q16515 1-512 T495A): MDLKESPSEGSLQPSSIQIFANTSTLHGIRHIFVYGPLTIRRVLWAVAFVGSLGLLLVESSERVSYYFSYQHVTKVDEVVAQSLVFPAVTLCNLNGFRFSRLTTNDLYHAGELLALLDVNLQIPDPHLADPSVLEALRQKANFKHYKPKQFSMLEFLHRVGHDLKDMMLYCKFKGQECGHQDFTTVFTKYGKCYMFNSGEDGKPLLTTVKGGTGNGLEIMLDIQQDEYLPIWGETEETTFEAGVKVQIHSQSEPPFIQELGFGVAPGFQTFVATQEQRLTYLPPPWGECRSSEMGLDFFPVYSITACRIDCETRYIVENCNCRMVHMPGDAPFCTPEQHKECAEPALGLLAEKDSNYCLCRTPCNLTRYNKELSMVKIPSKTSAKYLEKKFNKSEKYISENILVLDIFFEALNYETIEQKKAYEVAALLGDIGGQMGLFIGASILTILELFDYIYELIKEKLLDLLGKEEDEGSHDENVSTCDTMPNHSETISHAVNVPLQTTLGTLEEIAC
Put plainly: Two-electrode voltage clamp of Xenopus oocytes expressing BNC1. It is filed as cell-based. As to conditions: for activation of BNC1 current by agonist peptide: peptide added to bathing solution at 1-30 μM. How it is done:
Expression of BNC1 in Xenopus laevis Oocytes--BNC1 was expressed in Xenopus oocytes by nuclear injection of BNC1 cDNA cloned into pMT3 (0.2-0.3 ng). Control oocytes were injected with H2 O. α-, β-, and γhENaC (αβγhENaC) were expressed as described previously. Oocytes were maintained at 18° C. in modified Barth's solution, and current was measured by two-electrode voltage clamp 1 day after injection. During voltage clamp, oocytes were bathed in 116 mM NaCl, 2 mM KCl, 0.4 mM CaCl2, 1 mM Mg Cl2, 5 mM Hepes (pH 7.4 with NaOH). To determine ionic selectivity, NaCl was replaced with LiCl or KCl. Current-voltage relationships were determined by stepping from a holding potential of -60 mV to potentials between -100 and +40 mV for 1 second. Amiloride-sensitive current was obtained by subtracting current during exposure to a maximal concentration of amiloride (100 μM) from current prior to amiloride addition. Phe-Met-Arg-Phe-NH2 (FMRF-am-ide), Phe-Leu-Phe-Gln-Pro-Gln-Arg-Phe-NH2 (F-8-F-amide), and Ala-Gly-Glu-Gly-Leu-Ser-Ser-Pro-Phe-Trp-Ser-Leu-Ala-Ala-Pro-Gln-Arg-Phe-NH2 (A-18-F-amide) were obtained from Sigma and were added to the bathing solution at 1-30 μM.

Ends that are not written are not given here.

`CC(C)C[C@H](NC(=O)[C@@H](N)Cc1ccccc1)C(=O)N[C@@H](Cc1ccccc1)C(=O)N[C@@H](CCC(N)=O)C(=O)N1CCC[C@H]1C(=O)N[C@@H](CCC(N)=O)C(=O)N[C@@H](CCCNC(=N)N)C(=O)N[C@@H](Cc1ccccc1)C(N)=O` [F-8-F-amide, Phe-Leu-Phe-Gln-Pro-Gln-Arg-Phe-NH2]: the “activation of BNC1 current by agonist peptide” value (BNC1 in Xenopus oocytes) is on record as “not activated”.

As to `N=C(N)NC(=O)c1nc(Cl)c(N)nc1N` [amiloride], the IC50 (BNC1 expressed in Xenopus oocytes, plotted as fraction of response to 100 μM amiloride, n=4 (FIG. 8), read-out: half-maximal inhibition of Na+ current) stood at 147 ± 23 nM. Also, the “inward current reversibly inhibited by amiloride (amiloride-sensitive current)” value (BNC1 in Xenopus oocytes, holding potential -60 mV, amiloride 100 μM, n=12 (FIG. 6)) is recorded as 14.0±2.7 nA.

As for “Ala-Gly-Glu-Gly-Leu-Ser-Ser-Pro-Phe-Trp-Ser-Leu-Ala-Ala-Pro-Gln-Arg-Phe-NH2 (AGEGLSSPFWSLAAPQRF-NH2) [A-18-F-amide, related mammalian peptide, obtained from Sigma]”, the “activation of BNC1 current by agonist peptide” value (BNC1 in Xenopus oocytes) is listed as “not activated”.
